# Measurements published in patent US12077503B2, “Substituted cyclic amides and their use as herbicides” (FMC CORPORATION, priority 2015, dated 2024).
# Assays:
# Type in all cases: in vivo
# [1] = system: Kochia (Kochia scoparia); assay: Test A preemergence
# Method in brief: (§1)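 Visual injury scores from 0, no effect, to 100, complete control, were assigned versus untreated controls roughly 10 d after treatment in the greenhouse. Test chemicals, formulated with surfactant in a non-phytotoxic solvent, were applied to planted seeds as a preemergence soil spray or postemergence to one- to two-leaf plants 2 to 10 cm tall, in loam–sand soil.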
# [2] = system: barnyardgrass (Echinochloa crus-galli); assay: Test A preemergence
# Method in brief: as §1
# [3] = system: giant foxtail (Setaria faberii); assay: Test A preemergence
# Method in brief: as §1
# [4] = system: pigweed (Amaranthus retroflexus); assay: Test A preemergence
# [5] = system: ragweed (common ragweed, Ambrosia elatior); assay: Test A preemergence
# Method in brief: as §1
# [6] = system: ryegrass, Italian (Italian ryegrass, Lolium multiflorum); assay: Test A preemergence
# Method in brief: as §1
# [7] = system: Galium (catchweed bedstraw, Galium aparine); assay: Test A postemergence; details: postemergence; for Galium plant response rating: visual injury rating on 0 to 100 scale (0 no effect, 100 complete control)
# Method in brief: as §1
# [8] = system: Kochia (Kochia scoparia); assay: Test A postemergence; details: postemergence; for Kochia plant response rating: visual injury rating on 0 to 100 scale (0 no effect, 100 complete control)
# Method in brief: as §1
# [9] = system: barnyardgrass (Echinochloa crus-galli); assay: Test A postemergence
# Method in brief: as §1
# [10] = system: blackgrass (Alopecurus myosuroides); assay: Test A postemergence
# Method in brief: as §1
# [11] = system: corn (Zea mays); assay: Test A postemergence; details: for Corn plant response rating: visual injury rating on 0 to 100 scale (0 no effect, 100 complete control), approx. 10 d
# Method in brief: as §1
# [12] = system: giant foxtail (Setaria faberii); assay: Test A postemergence; details: postemergence; for Foxtail, Giant plant response rating: visual injury rating on 0 to 100 scale (0 no effect, 100 complete control)
# Method in brief: as §1
# [13] = system: pigweed (Amaranthus retroflexus); assay: Test A postemergence; details: postemergence; for Pigweed plant response rating: visual injury rating on 0 to 100 scale (0 no effect, 100 complete control)
# Method in brief: as §1
# [14] = system: ragweed (common ragweed, Ambrosia elatior); assay: Test A postemergence; details: postemergence; for Ragweed plant response rating: visual injury rating on 0 to 100 scale (0 no effect, 100 complete control)
# Method in brief: as §1
# [15] = system: ryegrass, Italian (Italian ryegrass, Lolium multiflorum); assay: Test A postemergence; details: postemergence; for Ryegrass, Italian plant response rating: visual injury rating on 0 to 100 scale (0 no effect, 100 complete control)
# Method in brief: as §1
# [16] = system: wheat (Triticum aestivum); assay: Test A postemergence; details: postemergence; for Wheat plant response rating: visual injury rating on 0 to 100 scale (0 no effect, 100 complete control)
# Method in brief: as §1
# [17] = system: barnyardgrass (Echinochloa crus-galli); assay: Test B flooded paddy test; details: Flood, 0 to 100 scale where 0 is no effect and 100 is complete control, 13 to 15 d
# Method in brief: (§2)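 Percent control, visually estimated after 13–15 d in the greenhouse on a 0–100 basis, compares treated pots with untreated ones; compound was put into paddy water 3 cm above the soil when plants had two leaves.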
# [18] = system: ducksalad (Heteranthera limosa); assay: Test B flooded paddy test; details: Flood, 0 to 100 scale where 0 is no effect and 100 is complete control, 13 to 15 d
# Method in brief: as §2
# [19] = system: rice (Oryra sativa); assay: Test B flooded paddy test; details: Flood, 0 to 100 scale where 0 is no effect and 100 is complete control, 13 to 15 d
# Method in brief: as §2
# [20] = system: sedge, umbrella (small-flower umbrella sedge, Cyperus difformis); assay: Test B flooded paddy test; details: Flood, 0 to 100 scale where 0 is no effect and 100 is complete control, 13 to 15 d
# Method in brief: as §2
# [21] = 125 g ai/ha, preemergence, 0 to 100 scale (0 no effect, 100 complete control)
# [22] = Preemergence, 500 g ai/ha, 0 is no effect, 100 is complete control
# [23] = 500 g ai/ha, 0 to 100 scale, 0 no effect, 100 complete control
# [24] = 500 g ai/ha, postemergence, 0 to 100 scale, 0 no effect, 100 complete control
# [25] = Postemergence, 125 g ai/ha, visual injury, 0 to 100 scale (0 no effect, 100 complete control), approx. 10 d
# [26] = 125 g ai/ha, Preemergence, visual injury after approximately 10 d, 0 to 100 scale where 0 is no effect and 100 is complete control
# [27] = 500 g ai/ha, preemergence, 0 to 100 scale, 0 = no effect, 100 = complete control
# [28] = 125 g ai/ha, visual rating after approx. 10 d, 0 to 100 scale (0 no effect, 100 complete control)
# [29] = 500 g ai/ha, visual injury, 0 to 100 scale (0 no effect, 100 complete control), approx. 10 d
# [30] = 125 g ai/ha, postemergence, visual rating after approx. 10 d, 0 to 100 scale (0 no effect, 100 complete control)
# [31] = Postemergence, 500 g ai/ha, 0 to 100 scale where 0 is no effect and 100 is complete control
# [32] = Preemergence, 500 g ai/ha, visual injury approx. 10 d
# [33] = 125 g ai/ha, postemergence, visual injury rating on 0 to 100 scale (0 no effect, 100 complete control), approx. 10 d
smiles,measurement,setting,value
O=C1NCC(c2cccc(OC(F)(F)C(F)F)c2)C1C(=O)Nc1ccccc1C(F)F (stereo not drawn) [Compound 391],"Plant response rating, Kochia",[1]; [21],30
same,Kochia plant response rating (0 to 100 scale),[1]; [22],50
same,"Plant response rating, Barnyardgrass",[2]; [21],80
same,Barnyardgrass plant response rating (0 to 100 scale),[2]; [22],90
same,"Plant response rating, Foxtail, Giant",[3]; [21],90
same,"Foxtail, Giant plant response rating (0 to 100 scale)",[3]; [22],90
same,"Plant response rating, Pigweed",[4]; [21],70
same,Pigweed plant response rating (0 to 100 scale),[4]; [22],70
same,"Plant response rating, Ragweed",[5]; [21],80
same,Ragweed plant response rating (0 to 100 scale),[5]; [22],80
same,"Plant response rating, Ryegrass, Italian",[6]; [21],20
same,"Ryegrass, Italian plant response rating (0 to 100 scale)",[6]; [22],50
same,Galium plant response rating,"[7]; 125 g ai/ha, approx. 10 d",60
same,"Plant response rating, Galium",[7]; [23],60
same,Kochia plant response rating,"[8]; 125 g ai/ha, approx. 10 d",0
same,"Plant response rating, Kochia",[8]; [23],60
same,"Plant response rating, Barnyardgrass",[9]; [24],80
same,"Plant response rating, Barnyardgrass",[9]; [25],60
same,"Plant response rating, Blackgrass",[10]; [24],70
same,"Plant response rating, Blackgrass",[10]; [25],50
same,Corn plant response rating,"[11]; 125 g ai/ha, postemergence",40
same,"Plant response rating, Corn",[11]; [24],70
same,"Foxtail, Giant plant response rating","[12]; 125 g ai/ha, approx. 10 d",90
same,"Plant response rating, Foxtail, Giant",[12]; [23],90
same,Pigweed plant response rating,"[13]; 125 g ai/ha, approx. 10 d",30
same,"Plant response rating, Pigweed",[13]; [23],50
same,Ragweed plant response rating,"[14]; 125 g ai/ha, approx. 10 d",20
same,"Plant response rating, Ragweed",[14]; [23],30
same,"Ryegrass, Italian plant response rating","[15]; 125 g ai/ha, approx. 10 d",30
same,"Plant response rating, Ryegrass, Italian",[15]; [23],40
same,Wheat plant response rating,"[16]; 125 g ai/ha, approx. 10 d",0
same,"Plant response rating, Wheat",[16]; [23],50
same,"Plant response rating, Barnyardgrass",[17]; 250 g ai/ha,40
same,"Plant response rating, Ducksalad",[18]; 250 g ai/ha,100
same,"Plant response rating, Rice",[19]; 250 g ai/ha,0
same,"Plant response rating, Sedge, Umbrella",[20]; 250 g ai/ha,0
NS(=O)(=O)c1ccccc1NC(=O)C1C(=O)NCC1c1cccc(C(F)(F)F)c1 (stereo not drawn) [Compound 634],"Plant response rating, Kochia",[1]; [26],0
same,"Plant response rating, Kochia",[1]; [27],0
same,"Plant response rating, Barnyardgrass",[2]; [26],20
same,"Plant response rating, Barnyardgrass",[2]; [27],70
same,"Plant response rating, Foxtail, Giant",[3]; [26],60
same,"Plant response rating, Foxtail, Giant",[3]; [27],80
same,"Plant response rating, Pigweed",[4]; [26],0
same,"Plant response rating, Pigweed",[4]; [27],30
same,"Plant response rating, Ragweed",[5]; [26],0
same,"Plant response rating, Ragweed",[5]; [27],0
same,"Plant response rating, Ryegrass, Italian",[6]; [26],0
same,"Plant response rating, Ryegrass, Italian",[6]; [27],0
same,"Plant response rating, Galium",[7]; [28],30
same,"Plant response rating, Galium",[7]; [29],60
same,"Plant response rating, Kochia",[8]; [28],0
same,"Plant response rating, Kochia",[8]; [29],0
same,"Plant response rating, Barnyardgrass",[9]; [30],40
same,"Plant response rating, Barnyardgrass",[9]; [31],80
same,"Plant response rating, Blackgrass",[10]; [30],0
same,"Plant response rating, Blackgrass",[10]; [31],0
same,"Plant response rating, Corn",[11]; [30],0
same,"Plant response rating, Corn",[11]; [31],0
same,"Plant response rating, Foxtail, Giant",[12]; [28],50
same,"Plant response rating, Foxtail, Giant",[12]; [29],80
same,"Plant response rating, Pigweed",[13]; [28],0
same,"Plant response rating, Pigweed",[13]; [29],0
same,"Plant response rating, Ragweed",[14]; [28],0
same,"Plant response rating, Ragweed",[14]; [29],0
same,"Plant response rating, Ryegrass, Italian",[15]; [28],0
same,"Plant response rating, Ryegrass, Italian",[15]; [29],20
same,"Plant response rating, Wheat",[16]; [28],0
same,"Plant response rating, Wheat",[16]; [29],0
same,"Plant response rating, Barnyardgrass",[17]; 500 g ai/ha,20
same,"Plant response rating, Ducksalad",[18]; 500 g ai/ha,40
same,"Plant response rating, Rice",[19]; 500 g ai/ha,15
same,"Plant response rating, Sedge, Umbrella",[20]; 500 g ai/ha,0
COc1c(F)ccc(NC(=O)C2C(=O)N(C)CC2c2cccc(OC(F)(F)C(F)F)c2)c1F (stereo not drawn) [Compound 430],"Plant response rating, Kochia",[1]; [21],30
same,"Kochia plant response rating (0 to 100 scale, 0 is no effect, 100 is complete control)",[1]; [32],70
same,"Plant response rating, Barnyardgrass",[2]; [21],80
same,"Barnyardgrass plant response rating (0 to 100 scale, 0 is no effect, 100 is complete control)",[2]; [32],90
same,"Plant response rating, Foxtail, Giant",[3]; [21],90
same,"Foxtail, Giant plant response rating (0 to 100 scale, 0 is no effect, 100 is complete control)",[3]; [32],90
same,"Plant response rating, Pigweed",[4]; [21],0
same,"Pigweed plant response rating (0 to 100 scale, 0 is no effect, 100 is complete control)",[4]; [32],50
same,"Plant response rating, Ragweed",[5]; [21],30
same,"Ragweed plant response rating (0 to 100 scale, 0 is no effect, 100 is complete control)",[5]; [32],50
same,"Plant response rating, Ryegrass, Italian",[6]; [21],40
same,"Ryegrass, Italian plant response rating (0 to 100 scale, 0 is no effect, 100 is complete control)",[6]; [32],50
same,Galium plant response rating,"[7]; 125 g ai/ha, approx. 10 d",50
same,"Plant response rating, Galium",[7]; [23],60
same,Kochia plant response rating,"[8]; 125 g ai/ha, approx. 10 d",20
same,"Plant response rating, Kochia",[8]; [23],50
same,Barnyardgrass plant response rating,[9]; [33],80
same,"Plant response rating, Barnyardgrass",[9]; [24],90
same,Blackgrass plant response rating,[10]; [33],20
same,"Plant response rating, Blackgrass",[10]; [24],70
same,Corn plant response rating,"[11]; 125 g ai/ha, postemergence",50
same,"Plant response rating, Corn",[11]; [24],70
same,"Foxtail, Giant plant response rating","[12]; 125 g ai/ha, approx. 10 d",80
same,"Plant response rating, Foxtail, Giant",[12]; [23],80
same,Pigweed plant response rating,"[13]; 125 g ai/ha, approx. 10 d",30
same,"Plant response rating, Pigweed",[13]; [23],50
same,Ragweed plant response rating,"[14]; 125 g ai/ha, approx. 10 d",0
same,"Plant response rating, Ragweed",[14]; [23],30
same,"Ryegrass, Italian plant response rating","[15]; 125 g ai/ha, approx. 10 d",30
same,"Plant response rating, Ryegrass, Italian",[15]; [23],50
same,Wheat plant response rating,"[16]; 125 g ai/ha, approx. 10 d",20
same,"Plant response rating, Wheat",[16]; [23],50
same,"Plant response rating, Barnyardgrass",[17]; 250 g ai/ha,65
same,"Plant response rating, Ducksalad",[18]; 250 g ai/ha,100
same,"Plant response rating, Rice",[19]; 250 g ai/ha,20
same,"Plant response rating, Sedge, Umbrella",[20]; 250 g ai/ha,0
